{
  "source": "paper PMC5218480",
  "about": "(PLoS ONE, 2017)",
  "tested_on": "MV-4-11 cells",
  "assay": "Gene expression microarray analysis (Affymetrix PrimeView) and GSEA",
  "assay_type": "cell-based, human",
  "parameters": "RFU PODN (11730768_x_at) / Fold change /veh PODN (11730768_x_at) / RFU LINC00158 (11744669_a_at) / Fold change /veh LINC00158 (11744669_a_at) / RFU DUSP10 (11751237_a_at) / Fold change /veh DUSP10 (11751237_a_at) / RFU ID3 (11757404_x_at) / Fold change /veh ID3 (11757404_x_at) / RFU PLEKHG5 (11737974_s_at) / Fold change /veh PLEKHG5 (11737974_s_at) / RFU LRRC4B (11730491_at) / Fold change /veh LRRC4B (11730491_at) / RFU GIMAP4 (11747438_a_at) / Fold change /veh GIMAP4 (11747438_a_at) / RFU KRT8 (11758183_x_at) / Fold change /veh KRT8 (11758183_x_at) / RFU CNN1 (11734310_a_at) / Fold change /veh CNN1 (11734310_a_at) / RFU VPS37D (11726825_at) / Fold change /veh VPS37D (11726825_at) / RFU C10orf10 (11716522_x_at) / Fold change /veh C10orf10 (11716522_x_at) / RFU KIR2DL2 /// KIR2DL4 /// KIR2DL5A /// KIR2DL5B /// KIR2DS1 /// KIR2DS2 /// KIR2DS3 /// KIR2DS4 /// KIR3DL3 /// KIR3DL3 /// KIR3DS1 (11738374_at) / Fold change /veh KIR2DL2 /// KIR2DL4 /// KIR2DL5A /// KIR2DL5B /// KIR2DS1 /// KIR2DS2 /// KIR2DS3 /// KIR2DS4 /// KIR3DL3 /// KIR3DL3 /// KIR3DS1 (11738374_at) / RFU C1QL1 (11718748_at) / Fold change /veh C1QL1 (11718748_at) / RFU TMPRSS4 (11747572_a_at) / Fold change /veh TMPRSS4 (11747572_a_at) / RFU HAMP (11756126_x_at) / Fold change /veh HAMP (11756126_x_at) / RFU RNFT2 (11725882_a_at) / Fold change /veh RNFT2 (11725882_a_at) / RFU NR4A2 (11747474_a_at) / Fold change /veh NR4A2 (11747474_a_at) / RFU ABCC12 (11746883_a_at) / Fold change /veh ABCC12 (11746883_a_at) / RFU TMEM136 (11760407_x_at) / Fold change /veh TMEM136 (11760407_x_at) / RFU CLDN22 /// WWC2 (11732394_at) / Fold change /veh CLDN22 /// WWC2 (11732394_at) / RFU HLA-DPB1 (11760878_x_at) / Fold change /veh HLA-DPB1 (11760878_x_at) / RFU SPINT1 (11716480_a_at) / Fold change /veh SPINT1 (11716480_a_at) / RFU GAP43 (11754022_s_at) / Fold change /veh GAP43 (11754022_s_at) / RFU A4GNT (11735810_at) / Fold change /veh A4GNT (11735810_at) / RFU PRB3 (11715151_x_at) / Fold change /veh PRB3 (11715151_x_at) / RFU TUBB4B (11761932_at) / Fold change /veh TUBB4B (11761932_at) / RFU CAPN14 (11732068_a_at) / Fold change /veh CAPN14 (11732068_a_at) / RFU TMCC2 (11721928_a_at) / Fold change /veh TMCC2 (11721928_a_at) / RFU IRGQ (11745062_a_at) / Fold change /veh IRGQ (11745062_a_at) / RFU FAM174B (11720279_a_at) / Fold change /veh FAM174B (11720279_a_at) / RFU TMPRSS4 (11748680_a_at) / Fold change /veh TMPRSS4 (11748680_a_at) / RFU FAM212B (11763350_a_at) / Fold change /veh FAM212B (11763350_a_at) / RFU PLEKHG5 (11743358_a_at) / Fold change /veh PLEKHG5 (11743358_a_at) / RFU ZSCAN30 (11745921_a_at) / Fold change /veh ZSCAN30 (11745921_a_at) / RFU CMKLR1 (11741424_a_at) / Fold change /veh CMKLR1 (11741424_a_at) / RFU LOC101060620 /// MAPK8IP1 (11723275_at) / Fold change /veh LOC101060620 /// MAPK8IP1 (11723275_at) / RFU SPTSSB (11747773_x_at) / Fold change /veh SPTSSB (11747773_x_at) / RFU PRSS12 (11739890_at) / Fold change /veh PRSS12 (11739890_at) / RFU BIN1 (11741810_x_at) / Fold change /veh BIN1 (11741810_x_at) / RFU WNT11 (11732464_a_at) / Fold change /veh WNT11 (11732464_a_at) / RFU C10orf10 (11716521_a_at) / Fold change /veh C10orf10 (11716521_a_at) / RFU C5orf56 (11738089_at) / Fold change /veh C5orf56 (11738089_at) / RFU CYB561 (11721691_x_at) / Fold change /veh CYB561 (11721691_x_at) / RFU ANKRD19P (11752326_a_at) / Fold change /veh ANKRD19P (11752326_a_at) / RFU OR2T12 /// OR2T33 /// OR2T8 (11738714_s_at) / Fold change /veh OR2T12 /// OR2T33 /// OR2T8 (11738714_s_at) / RFU VCAN (11748164_a_at) / Fold change /veh VCAN (11748164_a_at) / RFU JSRP1 (11732532_at) / Fold change /veh JSRP1 (11732532_at) / RFU KRTAP10-11 (11738290_x_at) / Fold change /veh KRTAP10-11 (11738290_x_at) / RFU MYO3A (11730013_a_at) / Fold change /veh MYO3A (11730013_a_at) / RFU EBF3 (11725865_a_at) / Fold change /veh EBF3 (11725865_a_at) / RFU CAMK2N1 (11719241_x_at) / Fold change /veh CAMK2N1 (11719241_x_at) / RFU C5orf56 (11738088_a_at) / Fold change /veh C5orf56 (11738088_a_at) / RFU OLFML3 (11715873_a_at) / Fold change /veh OLFML3 (11715873_a_at) / RFU LOC100653217 /// NTM (11731650_a_at) / Fold change /veh LOC100653217 /// NTM (11731650_a_at) / RFU MAPK11 (11762145_a_at) / Fold change /veh MAPK11 (11762145_a_at) / RFU FIZ1 (11724087_x_at) / Fold change /veh FIZ1 (11724087_x_at) / RFU OASL (11726364_x_at) / Fold change /veh OASL (11726364_x_at) / RFU SOX15 (11748057_x_at) / Fold change /veh SOX15 (11748057_x_at) / RFU CD79A (11719716_a_at) / Fold change /veh CD79A (11719716_a_at) / RFU HIST1H1D (11736915_at) / Fold change /veh HIST1H1D (11736915_at) / RFU CASKIN2 (11723855_a_at) / Fold change /veh CASKIN2 (11723855_a_at) / RFU LOC730098 (11760151_x_at) / Fold change /veh LOC730098 (11760151_x_at) / RFU OR4N2 (11742367_at) / Fold change /veh OR4N2 (11742367_at) / RFU PRRT2 (11749266_a_at) / Fold change /veh PRRT2 (11749266_a_at) / RFU SNX32 (11753110_a_at) / Fold change /veh SNX32 (11753110_a_at) / RFU CDHR5 (11726645_a_at) / Fold change /veh CDHR5 (11726645_a_at) / RFU RCAN1 (11760418_a_at) / Fold change /veh RCAN1 (11760418_a_at) / RFU FAM167A (11723789_a_at) / Fold change /veh FAM167A (11723789_a_at) / RFU FAM26E (11764081_at) / Fold change /veh FAM26E (11764081_at) / RFU ISYNA1 (11749810_s_at) / Fold change /veh ISYNA1 (11749810_s_at) / RFU ACY1 (11761880_at) / Fold change /veh ACY1 (11761880_at) / RFU 11764098_at / Fold change /veh 11764098_at / RFU SAMD14 (11745864_x_at) / Fold change /veh SAMD14 (11745864_x_at) / RFU NPB (11741838_a_at) / Fold change /veh NPB (11741838_a_at) / RFU TMPRSS6 (11731388_a_at) / Fold change /veh TMPRSS6 (11731388_a_at) / RFU KRTAP10-2 (11738614_at) / Fold change /veh KRTAP10-2 (11738614_at) / RFU ARHGAP8 /// PRR5-ARHGAP8 (11727945_x_at) / Fold change /veh ARHGAP8 /// PRR5-ARHGAP8 (11727945_x_at) / RFU KRTAP5-7 /// NADSYN1 (11734609_at) / Fold change /veh KRTAP5-7 /// NADSYN1 (11734609_at) / RFU RASL12 (11751679_a_at) / Fold change /veh RASL12 (11751679_a_at) / RFU CDKN2B (11736163_a_at) / Fold change /veh CDKN2B (11736163_a_at) / RFU PRF1 (11729649_at) / Fold change /veh PRF1 (11729649_at) / RFU, ZNF638 /// ZNF638-IT1 / Fold change vs veh, ZNF638 /// ZNF638-IT1 / RFU, PANK3 / Fold change vs veh, PANK3 / RFU, SH3YL1 / Fold change vs veh, SH3YL1 / RFU, ZEB2 / Fold change vs veh, ZEB2 / RFU, NRIP1 / Fold change vs veh, NRIP1 / RFU, PTTG1IP / Fold change vs veh, PTTG1IP / RFU, CAPN2 / Fold change vs veh, CAPN2 / RFU, MED14 / Fold change vs veh, MED14 / RFU, SNORA58 / Fold change vs veh, SNORA58 / RFU, C1orf63 / Fold change vs veh, C1orf63 / RFU, LRRFIP1 / Fold change vs veh, LRRFIP1 / RFU, NDUFAF7 / Fold change vs veh, NDUFAF7 / RFU, SLC12A2 / Fold change vs veh, SLC12A2 / RFU, IBTK / Fold change vs veh, IBTK / RFU, ESF1 / Fold change vs veh, ESF1 / Fold change vs veh, TMEM50B / RFU, TAOK1 / Fold change vs veh, TAOK1 / RFU, ACBD3 / Fold change vs veh, ACBD3 / RFU, TMA16 / Fold change vs veh, TMA16 / RFU, RWDD3 / Fold change vs veh, RWDD3 / RFU, BCAT1 / Fold change vs veh, BCAT1 / RFU, EDEM3 / Fold change vs veh, EDEM3 / RFU, TMEM33 / Fold change vs veh, TMEM33 / RFU, WDR75 / Fold change vs veh, WDR75 / RFU, AHCTF1 / Fold change vs veh, AHCTF1 / RFU, TFRC / Fold change vs veh, TFRC / RFU, ZDHHC17 / Fold change vs veh, ZDHHC17 / RFU, NOM1 / Fold change vs veh, NOM1 / RFU, ARL8B / Fold change vs veh, ARL8B / RFU, ZBTB11 / Fold change vs veh, ZBTB11 / RFU, TAMM41 / Fold change vs veh, TAMM41 / RFU, KIAA1704 /// LOC100996395 / Fold change vs veh, KIAA1704 /// LOC100996395 / RFU, ING1 / Fold change vs veh, ING1 / RFU, TRMT61B / Fold change vs veh, TRMT61B / RFU, FUBP3 / Fold change vs veh, FUBP3 / RFU, TP53 / Fold change vs veh, TP53 / RFU, TNKS2 / Fold change vs veh, TNKS2 / RFU, ZFP14 / Fold change vs veh, ZFP14 / RFU, ACTR2 / Fold change vs veh, ACTR2 / RFU, PPP3R1 / Fold change vs veh, PPP3R1 / RFU, PIK3R1 / Fold change vs veh, PIK3R1 / RFU, HNRNPA1 / Fold change vs veh, HNRNPA1 / RFU, RNF170 / Fold change vs veh, RNF170 / RFU, ZNF28 / Fold change vs veh, ZNF28 / RFU, RNGTT / Fold change vs veh, RNGTT / RFU, OGT / Fold change vs veh, OGT / RFU, BRD1 / Fold change vs veh, BRD1 / RFU, MARS / Fold change vs veh, MARS / RFU, ZNF655 / Fold change vs veh, ZNF655 / RFU, FAHD1 / Fold change vs veh, FAHD1 / RFU, BDP1 / Fold change vs veh, BDP1 / RFU, LRRCC1 / Fold change vs veh, LRRCC1 / RFU, ARID1A / Fold change vs veh, ARID1A / RFU, ZNF146 / Fold change vs veh, ZNF146 / RFU, ZNF330 / Fold change vs veh, ZNF330 / RFU, GPN3 / Fold change vs veh, GPN3 / RFU, C9orf123 / Fold change vs veh, C9orf123 / RFU, N4BP2L2 / Fold change vs veh, N4BP2L2 / RFU, ARFIP1 / Fold change vs veh, ARFIP1 / RFU, FAM179B / Fold change vs veh, FAM179B / RFU, BCL10 / Fold change vs veh, BCL10 / RFU, UHRF1BP1L / Fold change vs veh, UHRF1BP1L / RFU, BET1 / Fold change vs veh, BET1 / RFU, CNOT2 / Fold change vs veh, CNOT2 / RFU, ZNF268 / Fold change vs veh, ZNF268 / Fold change vs veh, ZNF507 / RFU, DGCR2 / Fold change vs veh, DGCR2 / RFU, WDSUB1 / Fold change vs veh, WDSUB1 / Fold change vs veh, HSP90B1 /// MIR3652 / RFU, ADSS / Fold change vs veh, ADSS / RFU, GK / Fold change vs veh, GK / RFU, ZNF148 / Fold change vs veh, ZNF148 / RFU, TAF9 / Fold change vs veh, TAF9 / RFU, SLC1A5 / Fold change vs veh, SLC1A5 / RFU, SLMO2 / Fold change vs veh, SLMO2 / RFU, ABCC4 / Fold change vs veh, ABCC4 / RFU, LOC101060439 /// RAP1B / Fold change vs veh, LOC101060439 /// RAP1B / RFU, RFX7 / Fold change vs veh, RFX7 / RFU, GTPBP10 / Fold change vs veh, GTPBP10 / RFU, CNEP1R1 / Fold change vs veh, CNEP1R1 / RFU, BIVM-ERCC5 /// ERCC5 / Fold change vs veh, BIVM-ERCC5 /// ERCC5 / RFU, ILF3 / Fold change vs veh, ILF3 / RFU 11762660_at / Fold change /veh 11762660_at / RFU VCAN (11757783_s_at) / Fold change /veh VCAN (11757783_s_at) / RFU DDX43 (11728927_at) / Fold change /veh DDX43 (11728927_at) / RFU KRT8 (11758188_x_at) / Fold change /veh KRT8 (11758188_x_at) / RFU NKD1 (11759106_at) / Fold change /veh NKD1 (11759106_at) / RFU SRD5A1 (11742802_a_at) / Fold change /veh SRD5A1 (11742802_a_at) / RFU TPSAB1 /// TPSB2 (11721975_s_at) / Fold change /veh TPSAB1 /// TPSB2 (11721975_s_at) / RFU GSTM3 (11746129_a_at) / Fold change /veh GSTM3 (11746129_a_at) / RFU IL23R (11737362_x_at) / Fold change /veh IL23R (11737362_x_at) / RFU TMEM51 (11727254_a_at) / Fold change /veh TMEM51 (11727254_a_at) / RFU PIWIL2 (11732686_x_at) / Fold change /veh PIWIL2 (11732686_x_at) / RFU ORM1 (11744905_x_at) / Fold change /veh ORM1 (11744905_x_at) / RFU CCDC152 (11743942_at) / Fold change /veh CCDC152 (11743942_at) / RFU ECM1 (11717891_a_at) / Fold change /veh ECM1 (11717891_a_at) / RFU IL23R (11748794_a_at) / Fold change /veh IL23R (11748794_a_at) / RFU TNFAIP8L3 (11732012_x_at) / Fold change /veh TNFAIP8L3 (11732012_x_at) / RFU MBOAT4 (11741988_at) / Fold change /veh MBOAT4 (11741988_at) / RFU 11764193_at / Fold change /veh 11764193_at / RFU TMEM53 (11763286_at) / Fold change /veh TMEM53 (11763286_at) / RFU MAGEB2 (11727129_at) / Fold change /veh MAGEB2 (11727129_at) / RFU TMEM200A (11744735_a_at) / Fold change /veh TMEM200A (11744735_a_at) / RFU CCDC152 (11751479_a_at) / Fold change /veh CCDC152 (11751479_a_at) / RFU FAM211A (11726209_a_at) / Fold change /veh FAM211A (11726209_a_at) / RFU RGS16 (11746705_a_at) / Fold change /veh RGS16 (11746705_a_at) / RFU VCAN (11755009_s_at) / Fold change /veh VCAN (11755009_s_at) / RFU RHOB (11743442_s_at) / Fold change /veh RHOB (11743442_s_at) / RFU RGS16 (11720943_a_at) / Fold change /veh RGS16 (11720943_a_at) / RFU RGS16 (11720944_at) / Fold change /veh RGS16 (11720944_at) / RFU, VPS4B / Fold change vs veh, VPS4B / RFU, CREB1 / Fold change vs veh, CREB1 / RFU, DNAJC13 / Fold change vs veh, DNAJC13 / RFU, GNAQ / Fold change vs veh, GNAQ / RFU, CDK5R1 / Fold change vs veh, CDK5R1 / RFU, ZRANB3 / Fold change vs veh, ZRANB3 / RFU, CUL4A / Fold change vs veh, CUL4A / RFU, CCNY / Fold change vs veh, CCNY / RFU, UFL1 / Fold change vs veh, UFL1 / RFU, COG3 / Fold change vs veh, COG3 / RFU, DIAPH2 / Fold change vs veh, DIAPH2 / RFU, SKA2 / Fold change vs veh, SKA2 / RFU, AFF3 / Fold change vs veh, AFF3 / RFU, LMF1 / Fold change vs veh, LMF1 / RFU, IPO11 / Fold change vs veh, IPO11 / RFU, DFFB / Fold change vs veh, DFFB / RFU, FOXP1 / Fold change vs veh, FOXP1 / RFU, CARD8 / Fold change vs veh, CARD8 / RFU, STRN3 / Fold change vs veh, STRN3 / RFU, ADK / Fold change vs veh, ADK / RFU, RASSF2 / Fold change vs veh, RASSF2 / RFU, WIPF1 / Fold change vs veh, WIPF1 / RFU, LARP1B / Fold change vs veh, LARP1B / RFU, RASA1 / Fold change vs veh, RASA1 / RFU, RB1 / Fold change vs veh, RB1 / RFU, PPFIA1 / Fold change vs veh, PPFIA1 / RFU, MAT2A / Fold change vs veh, MAT2A / RFU, CCT5 / Fold change vs veh, CCT5 / RFU, WDR92 / Fold change vs veh, WDR92 / RFU, CUX1 / Fold change vs veh, CUX1 / RFU, TTC7A / Fold change vs veh, TTC7A / RFU, TMEM135 / Fold change vs veh, TMEM135 / RFU, DEPTOR / Fold change vs veh, DEPTOR / RFU, CPM / Fold change vs veh, CPM / RFU, DNAJB6 / Fold change vs veh, DNAJB6 / RFU, CACNA2D3 / Fold change vs veh, CACNA2D3 / RFU, DTX4 / Fold change vs veh, DTX4 / RFU, TFCP2 / Fold change vs veh, TFCP2 / RFU, GMCL1 /// GMCL1P1 / Fold change vs veh, GMCL1 /// GMCL1P1 / RFU, AEBP2 / Fold change vs veh, AEBP2 / RFU, SNHG1 /// SNORD22 /// SNORD25 /// SNORD26 /// SNORD27 /// SNORD28 /// SNORD29 /// SNORD31 / Fold change vs veh, SNHG1 /// SNORD22 /// SNORD25 /// SNORD26 /// SNORD27 /// SNORD28 /// SNORD29 /// SNORD31 / Fold change (Aza/veh), C12orf56 (ProbeSet 11735607_a_at) / Fold change (ACY-1035/veh), C12orf56 (ProbeSet 11735607_a_at) / Fold change (Aza/veh), FGFR1OP (ProbeSet 11751329_s_at) / Fold change (ACY-1035/veh), FGFR1OP (ProbeSet 11751329_s_at) / Fold change (Aza/veh), VPS36 (ProbeSet 11739960_a_at) / Fold change (ACY-1035/veh), VPS36 (ProbeSet 11739960_a_at) / RFU SYPL1 (11715823_x_at) / Fold change /veh SYPL1 (11715823_x_at) / RFU IGFBP7 (11715501_s_at) / Fold change /veh IGFBP7 (11715501_s_at) / RFU REEP3 (11722064_at) / Fold change /veh REEP3 (11722064_at) / RFU IGLL1 (11728026_x_at) / Fold change /veh IGLL1 (11728026_x_at): dose or concentration left out as unconfirmed",
  "details": "MV-4-11 cells, 48 hours",
  "data": [
    {"compound": "Nc1ncn([C@@H]2O[C@H](CO)[C@@H](O)[C@H]2O)c(=O)n1", "note": "[azacitidine]", "values": [
      {"measurement": "Fold change /veh ID3 (11757404_x_at)", "result": 1.09}
    ]}
  ]
}
